Here are results for 2 compounds from patent US20040242489A1, “Method for improving stability of a bone-connecting implant” (priority 2001, published 2004).

Test [1] deals with knee prosthesis in patients. The following applies: administered orally to patients undergoing total knee replacement; cited from earlier work.
Test [2] has as its system humans suffering from osteoporosis. To be noted: cited from earlier work.
Test [3] deals with bone-connecting implant in a human. The test is described as follows: Displacement or migration of implant by radiosterometric analysis (RSA) in patients treated with PTH. The class given is in vivo. From the text:
For example, in Hilding, M. et al., Acta Orthopaedica Scandinavica 71:553-557 (2000), several 0.8 mm tantalum markers were positioned in both the proximal tibia and the plastic insert during total knee replacement surgeries. The positions of the markers were followed by radiographs taken one day, six weeks, six months and one year following the operation as a means to monitor postoperative implant shifting. Other techniques for measuring or evaluating the stability of bone-connecting implants are known to those skilled in the art and may be applied to the present invention.
The displacement or migration of the implanted artificial hip is measured over a 6-month period using radiosterometric analysis (RSA) as described in Hilding et al., supra.
The displacement or migration of the implanted artificial hip is measured over a 9-month period using radiosterometric analysis (RSA) as described in Hilding et al., supra.
The displacement or migration of the implanted tibia is measured over a 4-month period using radiosterometric analysis (RSA) as described in Hilding et al., supra.
The displacement or migration of the implanted artificial knee is measured over a 12-month period using radiosterometric analysis (RSA) as described in Hilding et al., supra.

The test system of test [4] is rats, titanium bone chamber. The following applies: 15-240 μg/kg/day for six weeks; cited from earlier work.
The subject of test [5] is rats, stainless steel screw. To be noted: 60 μg/kg/day for four weeks; cited from earlier work.

As for `O=P(O)(O)C(Cl)(Cl)P(=O)(O)O` [Clodronate], the prosthetic migration entry in test [1] is “appeared to reduce prosthetic migration”.
In the case of “PTH(1-34): The N-terminal 34 amino acids of human PTH (parathyroid hormone); PTH utilized in Examples 1-5 (SVSEIQLMHNLGKHLNSMERVEWLRKKLQDVHNF; Parathyroid hormone; UniProt P01270 32-65, looked up, fragment)”, in test [2], the fractures result is given as “reduce fractures”. The “spinal bone mineral content” value in test [2] is “increase spinal bone mineral content”. Moreover, the likelihood of reoperation entry is on record as “reduce the likelihood of reoperation” in test [3] (Example 1: person, osteoporosis, artificial hip, regimen of Table 1); “reduce the likelihood of reoperation” in test [3] (Example 2: person, osteoarthritis, artificial hip, regimen of Table 2); “reduce the likelihood of reoperation” in test [3] (Example 3: person, tibia replacement, regimen of Table 3); “reduce the likelihood of a reoperation” in test [3] (Example 4: person, knee replacement, regimen of Table 4); “reduce the likelihood of reoperation” in test [3] (Example 5: person, artificial hip, regimen of Table 5). For the same compound, the new bone formation result in test [4] is given as “enhances new bone formation”. Further, the “fixation of a stainless steel screw” value in test [5] is on record as “enhances fixation of a stainless steel screw”.
